From article PMC10609996, “The Toxicological Assessment of Anoectochilus burmannicus Ethanolic-Extract-Synthesized Selenium Nanoparticles Using Cell Culture, Bacteria, and Drosophila melanogaster as Suitable Models” (Nanomaterials, 2023)
“And” between values parts separate entries of the source, which are not always exact repeats. Identical values can stand only once.

Legend:
[1] = tested on: Salmonella typhimurium TA 100; experiment: Ames test, mutagenicity, TA 100
Experimental: (§1) 2-aminoanthracene (2-AA) and 2-(2-furyl)-3-(5-nitro-2-furyl)-acrylamide (AF-2) standard mutagens were used as positive control. 2-AA was used in the presence of S9 mixture, while AF-2 was used without the S9 mixture. Deionized water (DI) and DMSO were used as negative controls for the samples and mutagens, respectively. The mixture solution was poured onto the minimal histidine agar and then incubated at 37 °C for 48 h. The revertant colonies formed on the agar plate were scored.
(§2) Three plates were investigated per dose in two independent experiments for both mutagenicity and antimutagenicity tests.

[2] = tested on: Salmonella typhimurium TA 98; experiment: Ames test, mutagenicity, TA 98
Experimental: as §1, §2

[3] = tested on: Salmonella typhimurium TA 100; experiment: Ames test, anti-mutagenicity, TA 100; assay type: cell-based
Experimental: The antimutagenicity was indicated based on percentage inhibition which was calculated as in the following equation:Antimutagenicity (%) = [1 − (b/a)] × 100
(§3) • a = revertant colony number induced via standard mutagen (positive control) • b = revertant colony number induced by standard mutagen in the presence of each sample treatment

[4] = tested on: Salmonella typhimurium TA 98; experiment: Ames test, anti-mutagenicity, TA 98; assay type: cell-based
Drosophila melanogaster [5] = experiment: SMART (wing spot test), anti-mutagenicity; conditions: mutagen alone, 1 mM
Experimental: The wing spots were scored as mentioned above. The percentage of anti-mutagenicity of the nanoparticles (% inhibition) was calculated as in the following equation:Antimutagenicity (%) = [(a − b)/a] × 100
• a = number of total spots per wing of positive mutagen control group • b = number of total spots per wing of each experimental group

LX-2 = experiment: Cytotoxic assay (MTT) in LX-2; assay type: cell-based, human; conditions: LX-2, MTT
Experimental: (§4) Cell viability (%) = (Absorbance (sample))/(Absorbance (control)) × 100 […]
(§5) Cell proliferation was determined using an MTT assay at indicated time.
(§6) The solution was gently removed, then the crystal was dissolved by dimethyl sulfoxide (DMSO). The cell viability is directly related to the […]
(§7) to a decrease in cell numbers. […]
(§8) the starting point (0 h) (B-E).

3T3-L1 = experiment: Cytotoxic assay (MTT) in 3T3-L1; conditions: at up to 16 µM
MRC-5 = experiment: Cytotoxic assay (MTT) in MRC-5; assay type: cell-based, human; conditions: MRC-5, MTT
Experimental: as §4, §5, §6, §7, §8

hPBMCs = experiment: Cytotoxicity on hPBMCs (SRB assay); conditions: at up to 16 µM of Se
Experimental: (§9) Human blood samples of healthy subjects were obtained from Maharaj Hospital, Chiang Mai, Thailand, which were anonymized by the laboratory and kept in a heparinized tube. […] The remaining RBCs were used in a hemolysis assay. […] Consent to participate was not applicable because of anonymous data collection. All methods were carried out following relevant guidelines and regulations.

Caco2 = experiment: Cytotoxic assay (MTT) in Caco2; assay type: cell-based, human
Experimental: as §4, §5, §6, §7, §8

HEK-293 = experiment: Cytotoxic assay (MTT) in HEK-293; assay type: cell-based, human; conditions: HEK-293, MTT
Experimental: as §4, §5, §6, §7, §8

[6] = tested on: Salmonella typhimurium TA 98; experiment: Ames test, anti-mutagenicity, TA 98; assay type: cell-based; conditions: TA 98, +S9, PhIP (0.1 µg/Plate)
Experimental: To determine the antimutagenicity of the samples, 6-phenylimidazo [4,5-b]pyridine (PhIP) and 2-Amino-3-methylimidazo [4,5-f]quinoline (IQ) were used as standard mutagens (positive control) in the test of TA98 and TA100, respectively, in the presence of S9 mixture. The antimutagenicity was indicated based on percentage inhibition which was calculated as in the following equation:Antimutagenicity (%) = [1 − (b/a)] × 100
as §3

hRBCs = experiment: Hemolysis assay
Experimental: as §9
Human RBCs were collected after the separation of hPBMCs from whole blood. The 5% RBCs suspension then was mixed with several concentrations of the various forms of selenium and incubated at 37 °C for three hours. […] Hemoglobin released by damaged cells can be used as a marker of red blood cell lysis following test agent exposure and can notice as a red-color solution that can be measured for absorbance using spectrophotometry. Triton X-100 was used as a positive control.

Drosophila melanogaster [7] = experiment: SMART (wing spot test), mutagenicity; assay type: in vivo; design: key to Statistical diagnosis: Small Single (m = 2) / Statistical diagnosis: Large Single (m = 5) / Statistical diagnosis: Twin (m = 5) / Statistical diagnosis: Total Spots (m = 2): + = positive; − = negative; i = inconclusive; conditions: 20 mM
Experimental: Urethane (20 mM) was used as a mutagen (positive control) and DI was used as a negative control. The larvae were fed on each medium until pupation at 25 °C. Later, the wings of surviving flies were removed for mutant spot analysis. Approximately 40 wings in each group were scored for the presence of mutant spots, including small single spots, large single spots, and twin spots. The results were diagnosed using the estimation of spot frequencies and confidence limits for comparison with the control group, and the statistical significance was calculated as previously described by Frei and Würgler.

[8] = TA 100, +S9, IQ (0.05 µg/Plate), 3.12 µM/plate
[9] = TA 100, +S9, IQ (0.05 µg/Plate), 6.25 µM/plate
[10] = TA 100, +S9, IQ (0.05 µg/Plate), 12.5 µM/plate
[11] = TA 100, −S9, AF-2 (0.01 µg/Plate), 3.12 µM/plate
[12] = TA 100, −S9, AF-2 (0.01 µg/Plate), 6.25 µM/plate
[13] = TA 100, −S9, AF-2 (0.01 µg/Plate), 12.5 µM/plate
[14] = TA 98, −S9, AF-2 (0.1 µg/Plate), 3.12 µM/plate
[15] = TA 98, −S9, AF-2 (0.1 µg/Plate), 6.25 µM/plate
[16] = TA 98, −S9, AF-2 (0.1 µg/Plate), 12.5 µM/plate

## Nc1ccc2cc3ccccc3cc2c1 [2-AA, 2-aminoanthracene]
[1]; TA 100, +S9, 0.5 µg/plate
  Number of Revertant Colonies: 590 ± 38
[2]; TA 98, +S9, 0.5 µg/plate
  Number of Revertant Colonies: 318 ± 24

## NC(=O)C(=Cc1ccc([N+](=O)[O-])o1)c1ccco1 [AF-2, 2-(2-furyl)-3-(5-nitro-2-furyl)-acrylamide]
[1]; TA 100, −S9, 0.1 µg/plate
  Number of Revertant Colonies: 500 ± 73
[3]; TA 100, −S9, standard mutagen alone, 0.01 µg/Plate
  Number of Revertant Colonies: 460 ± 36 (0)
[4]; TA 98, −S9, standard mutagen alone, 0.1 µg/Plate
  Number of Revertant Colonies: 347 ± 20 (0)
[2]; TA 98, −S9, 0.1 µg/plate
  Number of Revertant Colonies: 299 ± 20

## CCOS(C)(=O)=O [EMS, ethyl methanesulfonate]
Drosophila melanogaster [5]
  Frequency of Mutant Spots Per Individual: Large Single (>2 Cells): 2.850
  Frequency of Mutant Spots Per Individual: Small Single (1–2 Cells): 7.400
  Frequency of Mutant Spots Per Individual: Total Spots: 11.300
  Frequency of Mutant Spots Per Individual: Twin Spots: 1.050
  Number of Spots: Large Single (>2 Cells): 114
  Number of Spots: Small Single (1–2 Cells): 296
  Number of Spots: Total Spots: 452
  Number of Spots: Twin Spots: 42
Drosophila melanogaster [5]; vs deionized water
  Statistical diagnosis: Large Single (>2 Cells): +
  Statistical diagnosis: Small Single (1–2 Cells): +
  Statistical diagnosis: Total Spots: +
  Statistical diagnosis: Twin Spots: +

## Cn1c(N)nc2c3cccnc3ccc21 [IQ, 2-Amino-3-methylimidazo [4,5-f]quinoline]
[3]; TA 100, +S9, standard mutagen alone, 0.05 µg/Plate
  Number of Revertant Colonies: 490 ± 20 (0)

## O=[Se]([O-])[O-].[Na+].[Na+] [Na2SeO3, sodium selenite]
[1]; TA 100, +S9, 3.12 µM/plate
  Number of Revertant Colonies: 121 ± 8
[1]; TA 100, +S9, 6.25 µM/plate
  Number of Revertant Colonies: 122 ± 11
[1]; TA 100, +S9, 12.5 µM/plate
  Number of Revertant Colonies: 126 ± 7
[1]; TA 100, −S9, 3.12 µM/plate
  Number of Revertant Colonies: 117 ± 7
[1]; TA 100, −S9, 6.25 µM/plate
  Number of Revertant Colonies: 110 ± 4
[1]; TA 100, −S9, 12.5 µM/plate
  Number of Revertant Colonies: 112 ± 7
LX-2; 48 h vs starting point 0 h
  effect on cell number (cell proliferation, Supplementary Figure S5): killing effect
LX-2; selenium concentration
  IC50: 11.2 µM
3T3-L1
  toxicity to pre 3T3-L1: not toxic
MRC-5; 48 h vs starting point 0 h
  effect on cell number (cell proliferation, Supplementary Figure S5): killing effect
MRC-5; selenium concentration
  IC50: 10.5 µM
hPBMCs
  cell viability of hPBMCs: not harmful
Caco2; 48 h vs starting point 0 h
  effect on cell number (cell proliferation, Supplementary Figure S5): killing effect
Caco2; selenium concentration
  IC50: 4 µM and ~4 µM
[3]; [8]
  % mutagenic inhibition: 11%
  Number of Revertant Colonies: 435 ± 24
[3]; [9]
  % mutagenic inhibition: 18%
  Number of Revertant Colonies: 404 ± 20
[3]; [10]
  % mutagenic inhibition: 21%
  Number of Revertant Colonies: 385 ± 28
[3]; TA100, +S9, IQ, 6.25–12.5 µM/plate
  inhibition of mutagen-induced revertant colonies: 18–21%
[3]; TA100, −S9
  anti-mutagenic activity in the AF-2-induced mutation model: not observed
[3]; [11]
  % mutagenic inhibition: −17%
  Number of Revertant Colonies: 541 ± 82
[3]; [12]
  % mutagenic inhibition: −24%
  Number of Revertant Colonies: 570 ± 40
[3]; [13]
  % mutagenic inhibition: −30%
  Number of Revertant Colonies: 597 ± 58
[4]; TA98, −S9
  anti-mutagenic activity in the AF-2-induced mutation model: not observed
[4]; [14]
  % mutagenic inhibition: 9%
  Number of Revertant Colonies: 315 ± 6
[4]; [15]
  % mutagenic inhibition: 4%
  Number of Revertant Colonies: 335 ± 24
[4]; [16]
  % mutagenic inhibition: 5%
  Number of Revertant Colonies: 329 ± 14
[2]; TA 98, +S9, 3.12 µM/plate
  Number of Revertant Colonies: 25 ± 5
[2]; TA 98, +S9, 6.25 µM/plate
  Number of Revertant Colonies: 26 ± 4
[2]; TA 98, +S9, 12.5 µM/plate
  Number of Revertant Colonies: 27 ± 5
[2]; TA 98, −S9, 3.12 µM/plate
  Number of Revertant Colonies: 22 ± 2
[2]; TA 98, −S9, 6.25 µM/plate
  Number of Revertant Colonies: 21 ± 1
[2]; TA 98, −S9, 12.5 µM/plate
  Number of Revertant Colonies: 23 ± 3
[2]; TA98 and TA 100, presence or absence of S9 homogenate
  mutagenicity in Ames test: neither pro-mutagen nor mutagen
HEK-293; 48 h vs starting point 0 h
  effect on cell number (cell proliferation, Supplementary Figure S5): killing effect
HEK-293; selenium concentration
  IC50: 9 µM
[6]; 3.12 µM/plate
  % mutagenic inhibition: 7%
  Number of Revertant Colonies: 341 ± 14
[6]; 6.25 µM/plate
  % mutagenic inhibition: 6%
  Number of Revertant Colonies: 345 ± 9
[6]; 12.5 µM/plate
  % mutagenic inhibition: 10%
  Number of Revertant Colonies: 332 ± 23
hRBCs; Se concentration 4 µM, 37 °C, three hours
  % Hemolysis: 0.01 ± 0.059%
hRBCs; Se concentration 6.25 µM, 37 °C, three hours
  % Hemolysis: 0.14 ± 0.036%
hRBCs; Se concentration 8 µM, 37 °C, three hours
  % Hemolysis: 0.06 ± 0.024%
hRBCs; Se concentration 50 µM, 37 °C, three hours
  % Hemolysis: 0.08 ± 0.074%

## CCOC(N)=O [Urethane, ethyl carbamate]
Drosophila melanogaster [7]; 40 wings
  Frequency of Mutant Spots Per Individual: Large Single (m = 5): 10.50
  Frequency of Mutant Spots Per Individual: Small Single (m = 2): 24.75
  Frequency of Mutant Spots Per Individual: Total Spots (m = 2): 36.25
  Frequency of Mutant Spots Per Individual: Twin (m = 5): 1.0
  Number of Spots: Large Single (m = 5): 420
  Number of Spots: Small Single (m = 2): 990
  Number of Spots: Total Spots (m = 2): 1450
  Number of Spots: Twin (m = 5): 40
Drosophila melanogaster [7]; vs DI
  Statistical diagnosis: Large Single (m = 5): +
  Statistical diagnosis: Small Single (m = 2): +
  Statistical diagnosis: Total Spots (m = 2): +
  Statistical diagnosis: Twin (m = 5): +

## Triton X-100
hRBCs; positive control, run beside each Se form
  % Hemolysis: 98 ± 0.052% and 100 ± 0.23%
